# According to US20090118332A1, “Therapeutic Agents - 551” (AstraZeneca AB, priority 2006, published 2009):
# Target: T1, human Fatty Acid Synthase (Homo sapiens, UniProt P49327)
# T1 construct: made in house
# Test: Human FAS enzyme assay (decrease in NADPH fluorescence)
# Assay type: biochemical
# Details: % inhibition at a concentration of 100 μmolar
# Outline: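 In-house human FAS was preincubated with compound and NADPH for 15 min at room temperature in 0.1 M Tris pH 7.5 with EDTA, glutathione and BSA. Malonyl CoA and acetyl CoA (500 μM and 150 μM in the added mix) were then added for 60 min. IC50 came from time-zero-subtracted NADPH fluorescence (340/460 nm).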
# T1 sequence (P49327 whole entry): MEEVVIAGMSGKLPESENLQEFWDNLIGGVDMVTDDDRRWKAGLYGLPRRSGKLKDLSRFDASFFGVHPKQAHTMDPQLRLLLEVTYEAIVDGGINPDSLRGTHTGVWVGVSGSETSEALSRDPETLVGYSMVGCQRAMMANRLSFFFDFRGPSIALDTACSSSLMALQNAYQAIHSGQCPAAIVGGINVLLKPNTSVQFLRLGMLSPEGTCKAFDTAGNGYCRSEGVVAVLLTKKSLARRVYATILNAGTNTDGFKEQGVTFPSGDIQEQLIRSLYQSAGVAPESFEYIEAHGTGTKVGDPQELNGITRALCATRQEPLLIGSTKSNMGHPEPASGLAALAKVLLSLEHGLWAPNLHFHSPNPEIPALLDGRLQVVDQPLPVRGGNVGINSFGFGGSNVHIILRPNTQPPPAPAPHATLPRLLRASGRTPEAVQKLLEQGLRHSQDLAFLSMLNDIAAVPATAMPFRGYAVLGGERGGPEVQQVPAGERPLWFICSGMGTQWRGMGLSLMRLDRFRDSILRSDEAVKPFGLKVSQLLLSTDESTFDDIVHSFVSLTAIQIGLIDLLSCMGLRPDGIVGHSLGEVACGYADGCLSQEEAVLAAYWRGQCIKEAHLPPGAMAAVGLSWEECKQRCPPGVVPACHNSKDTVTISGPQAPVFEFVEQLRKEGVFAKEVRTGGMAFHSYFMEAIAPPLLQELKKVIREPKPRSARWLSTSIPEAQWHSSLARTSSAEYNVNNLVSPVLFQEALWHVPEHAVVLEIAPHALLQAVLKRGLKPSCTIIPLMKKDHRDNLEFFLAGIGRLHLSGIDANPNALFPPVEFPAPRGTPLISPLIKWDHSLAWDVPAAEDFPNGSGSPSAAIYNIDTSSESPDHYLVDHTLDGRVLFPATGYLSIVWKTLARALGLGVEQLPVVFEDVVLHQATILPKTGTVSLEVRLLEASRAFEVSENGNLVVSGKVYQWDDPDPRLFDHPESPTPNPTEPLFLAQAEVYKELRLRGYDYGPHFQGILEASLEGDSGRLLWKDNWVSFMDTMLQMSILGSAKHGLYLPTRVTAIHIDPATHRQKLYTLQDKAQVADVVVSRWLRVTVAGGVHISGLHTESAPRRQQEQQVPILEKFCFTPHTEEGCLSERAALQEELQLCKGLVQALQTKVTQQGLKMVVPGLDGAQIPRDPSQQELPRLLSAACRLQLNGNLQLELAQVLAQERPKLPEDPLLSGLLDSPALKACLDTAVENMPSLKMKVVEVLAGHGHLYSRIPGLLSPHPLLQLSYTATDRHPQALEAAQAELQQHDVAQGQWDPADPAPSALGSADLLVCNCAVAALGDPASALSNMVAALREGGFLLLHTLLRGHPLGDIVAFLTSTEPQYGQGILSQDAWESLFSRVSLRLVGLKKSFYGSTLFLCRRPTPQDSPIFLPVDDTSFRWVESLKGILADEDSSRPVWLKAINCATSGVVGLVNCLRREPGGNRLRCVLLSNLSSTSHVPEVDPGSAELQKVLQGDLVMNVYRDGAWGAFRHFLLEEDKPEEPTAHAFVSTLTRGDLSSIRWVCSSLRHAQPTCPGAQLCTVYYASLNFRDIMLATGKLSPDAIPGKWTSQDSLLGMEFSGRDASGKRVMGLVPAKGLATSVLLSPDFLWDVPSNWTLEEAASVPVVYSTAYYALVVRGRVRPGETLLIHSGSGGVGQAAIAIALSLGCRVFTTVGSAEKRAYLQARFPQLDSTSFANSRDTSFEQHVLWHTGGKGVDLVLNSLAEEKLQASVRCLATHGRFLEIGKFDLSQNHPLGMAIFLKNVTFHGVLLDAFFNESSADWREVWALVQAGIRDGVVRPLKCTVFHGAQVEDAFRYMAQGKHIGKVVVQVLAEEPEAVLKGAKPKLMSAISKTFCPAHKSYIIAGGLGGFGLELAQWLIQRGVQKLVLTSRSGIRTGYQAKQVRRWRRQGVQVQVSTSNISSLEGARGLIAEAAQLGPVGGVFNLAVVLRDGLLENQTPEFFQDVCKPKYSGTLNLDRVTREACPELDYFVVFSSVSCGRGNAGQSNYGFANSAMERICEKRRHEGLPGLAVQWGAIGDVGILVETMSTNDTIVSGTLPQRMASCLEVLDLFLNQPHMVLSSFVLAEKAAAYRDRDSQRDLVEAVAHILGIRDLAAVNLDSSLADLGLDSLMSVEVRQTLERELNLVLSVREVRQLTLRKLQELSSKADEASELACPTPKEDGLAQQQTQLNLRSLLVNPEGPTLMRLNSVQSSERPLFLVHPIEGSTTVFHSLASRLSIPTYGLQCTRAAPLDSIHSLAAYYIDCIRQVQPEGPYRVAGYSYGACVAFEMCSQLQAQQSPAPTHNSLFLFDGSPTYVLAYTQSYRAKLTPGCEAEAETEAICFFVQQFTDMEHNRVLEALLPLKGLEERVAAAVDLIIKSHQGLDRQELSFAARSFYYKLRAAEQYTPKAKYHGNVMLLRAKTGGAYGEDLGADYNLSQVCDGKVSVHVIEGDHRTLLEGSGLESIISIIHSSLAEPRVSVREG
row,Compound,inhibition at 100 µM
1,"Cc1ccc(C(=O)N2CCC(c3ccc(C#N)cc3)CC2)cc1NC(=O)NCCO [Example 90, 1-[5-[4-(4-cyanophenyl)piperidine-1-carbonyl]-2-methyl-phenyl]-3-(2-hydroxyethyl)urea]",93.6%
2,"Cc1ccc(C(=O)N2CCC(c3ccc(C#N)cc3)CC2)cc1NC(=O)NCCNC(=O)c1ccccn1 [Example 91, N-[2-[[5-[4-(4-cyanophenyl)piperidine-1-carbonyl]-2-methyl-phenyl]carbamoylamino]ethyl]pyridine-2-carboxamide]",95.9%
3,"Cc1ccc(C(=O)N2CCC(c3ccc(C#N)cc3)CC2)cc1NC(=O)NCCNS(=O)(=O)N(C)C [Example 92, 1-[5-[4-(4-cyanophenyl)piperidine-1-carbonyl]-2-methyl-phenyl]-3-[2-(dimethylsulfamoylamino)ethyl]urea]",102%
4,"Cc1ccc(C(=O)N2CCC(c3ccc(C#N)cc3)CC2)cc1NC(=O)NC(C)(C)CNC(=O)c1cccnc1 [Example 93, N-[2-[[5-[4-(4-cyanophenyl)piperidine-1-carbonyl]-2-methyl-phenyl]carbamoylamino]-2-methyl-propyl]pyridine-3-carboxamide]",90.1%
5,"Cc1ccc(C(=O)N2CCC(c3ccc(C#N)cc3)CC2)cc1NC(=O)NCCNc1nc(N)nc(C)c1C [Example 94, 3-[2-[(2-amino-5,6-dimethyl-pyrimidin-4-yl)amino]ethyl]-1-[5-[4-(4-cyanophenyl)piperidine-1-carbonyl]-2-methyl-phenyl]urea]",89.6%
6,"Cc1ccc(C(=O)N2CCC(c3ccc(C#N)cc3)CC2)cc1NC(=O)NCCNc1ncnc2[nH]cnc12 [Example 95, 1-[5-[4-(4-cyanophenyl)piperidine-1-carbonyl]-2-methyl-phenyl]-3-[2-(9H-purin-6-ylamino)ethyl]urea]",94.4%
7,"CC(C)=CCNC(=O)Nc1cc(C(=O)N2CCC(c3ccc(C#N)cc3)CC2)ccc1C [Example 96, 1-[5-[4-(4-cyanophenyl)piperidine-1-carbonyl]-2-methyl-phenyl]-3-(3-methylbut-2-enyl)urea]",103%
8,"Cc1ccc(C(=O)N2CCC(c3ccc(C#N)cc3)CC2)cc1NC(=O)NC1CN(C(=O)OC(C)(C)C)C1 [Example 97, tert-butyl 3-[[5-[4-(4-cyanophenyl)piperidine-1-carbonyl]-2-methyl-phenyl]carbamoylamino]azetidine-1-carboxylate]",95.5%
9,"Cc1ccc(C(=O)N2CCC(c3ccc(C#N)cc3)CC2)cc1NC(=O)NC(C)c1ccc(S(C)(=O)=O)cc1 (stereo not drawn) [Example 98, 1-[5-[4-(4-cyanophenyl)piperidine-1-carbonyl]-2-methyl-phenyl]-3-[1-(4-methylsulfonylphenyl)ethyl]urea]",91.9%
10,"Cc1ccc(C(=O)N2CCC(c3ccc(C#N)cc3)CC2)cc1NC(=O)NC1Cc2ccncc2NC1=O (stereo not drawn) [Example 99, 1-[5-[4-(4-cyanophenyl)piperidine-1-carbonyl]-2-methyl-phenyl]-3-(2-oxo-3,4-dihydro-1H-1,7-naphthyridin-3-yl)urea]",90.2%
11,"Cc1ccc(C(=O)N2CCC(c3ccc(C#N)cc3)CC2)cc1NC(=O)NCCCN1CCCC(C)C1 (stereo not drawn) [Example 100, 1-[5-[4-(4-cyanophenyl)piperidine-1-carbonyl]-2-methyl-phenyl]-3-[3-(3-methyl-1-piperidyl)propyl]urea]",77.8%
12,"COc1ccc(NCCNC(=O)Nc2cc(C(=O)N3CCC(c4ccc(C#N)cc4)CC3)ccc2C)cc1 [Example 101, 1-[5-[4-(4-cyanophenyl)piperidine-1-carbonyl]-2-methyl-phenyl]-3-[2-[(4-methoxyphenyl)amino]ethyl]urea]",90.7%
13,"Cc1ccc(C(=O)N2CCC(c3ccc(C#N)cc3)CC2)cc1NC(=O)NCCNC(=O)OC(C)(C)C [Example 102, tert-butyl N-[2-[[5-[4-(4-cyanophenyl)piperidine-1-carbonyl]-2-methyl-phenyl]carbamoylamino]ethyl]carbamate]",91.9%
14,"Cc1ccc(C(=O)N2CCC(c3ccc(C#N)cc3)CC2)cc1NC(=O)NCCN [Example 103, 3-(2-aminoethyl)-1-[5-[4-(4-cyanophenyl)piperidine-1-carbonyl]-2-methyl-phenyl]urea]",91.8%
15,"Cc1ccc(C(=O)N2CCC(c3ccc(C#N)cc3)CC2)cc1NC(=O)NCCNC(=O)C(=O)O [Example 104, 2-[[5-[4-(4-cyanophenyl)piperidine-1-carbonyl]-2-methyl-phenyl]carbamoylamino]ethylcarbamoylformic acid]",74.5%
16,"Cc1ccc(C(=O)N2CCC(c3ccc(C#N)cc3)CC2)cc1NC(=O)NCCNC(=O)CC(=O)O [Example 104A, 2-[2-[[5-[4-(4-cyanophenyl)piperidine-1-carbonyl]-2-methyl-phenyl]carbamoylamino]ethylcarbamoyl]acetic acid]",79%
17,"Cc1ccc(C(=O)N2CCC(c3ccc(C#N)cc3)CC2)cc1NC(=O)N[C@@H](C)c1ccccc1 [Example 105, 1-[5-[4-(4-cyanophenyl)piperidine-1-carbonyl]-2-methyl-phenyl]-3-[(1S)-1-phenylethyl]urea]",92.7%

row,Compound,inhibition at 100 µM
1,"Cc1ccc(C(=O)N2CCC(c3ccc(C#N)cc3)CC2)cc1NC(=O)N[C@H](C)c1ccccc1 [Example 106, 1-[5-[4-(4-cyanophenyl)piperidine-1-carbonyl]-2-methyl-phenyl]-3-[(1R)-1-phenylethyl]urea]",90.3%
2,"Cc1ccc(C(=O)N2CCC(c3ccc(C#N)cc3)CC2)cc1NC(=O)NC1CCC(O)CC1 (stereo not drawn) [Example 107, 1-[5-[4-(4-cyanophenyl)piperidine-1-carbonyl]-2-methyl-phenyl]-3-(4-hydroxycyclohexyl)urea]",97.7%
3,"Cc1ccc(C(=O)N2CCC(c3ccc(C#N)cc3)CC2)cc1NC(=O)NCc1cccc(C#N)c1 [Example 108, 3-[(3-cyanophenyl)methyl]-1-[5-[4-(4-cyanophenyl)piperidine-1-carbonyl]-2-methyl-phenyl]urea]",91.8%
4,"Cc1ccc(C(=O)N2CCC(c3ccc(C#N)cc3)CC2)cc1NC(=O)NCCNS(C)(=O)=O [Example 109, 1-[5-[4-(4-cyanophenyl)piperidine-1-carbonyl]-2-methyl-phenyl]-3-(2-methanesulfonamidoethyl)urea]",98.3%
5,"CCS(=O)(=O)NCCNC(=O)Nc1cc(C(=O)N2CCC(c3ccc(C#N)cc3)CC2)ccc1C [Example 110, 3-[5-[4-(4-cyanophenyl)piperidine-1-carbonyl]-2-methyl-phenyl]-1-[2-(ethylsulfonylamino)ethyl]urea]",94.2%
6,"CCC(=O)NCCNC(=O)Nc1cc(C(=O)N2CCC(c3ccc(C#N)cc3)CC2)ccc1C [Example 111, N-[2-[[5-[4-(4-cyanophenyl)piperidine-1-carbonyl]-2-methyl-phenyl]carbamoylamino]ethyl]propanamide]",95.6%
7,"Cc1ccc(C(=O)N2CCC(c3ccc(C#N)cc3)CC2)cc1NC(=O)NCCNC(=O)C(C)C [Example 112, N-[2-[[5-[4-(4-cyanophenyl)piperidine-1-carbonyl]-2-methyl-phenyl]carbamoylamino]ethyl]-2-methyl-propanamide]",94.3%
8,"CC(=O)OCC(=O)NCCNC(=O)Nc1cc(C(=O)N2CCC(c3ccc(C#N)cc3)CC2)ccc1C [Example 113, 2-[[5-[4-(4-cyanophenyl)piperidine-1-carbonyl]-2-methyl-phenyl]carbamoylamino]ethylcarbamoylmethyl acetate]",92.7%
9,"Cc1ccc(C(=O)N2CCC(c3ccc(C#N)cc3)CC2)cc1NC(=O)NCCNC(=O)CO [Example 114, N-[2-[[5-[4-(4-cyanophenyl)piperidine-1-carbonyl]-2-methyl-phenyl]carbamoylamino]ethyl]-2-hydroxy-acetamide]",89.4%
10,"Cc1ccc(C(=O)N2CCC(c3ccc(C#N)cc3)CC2)cc1NC(=O)NCCN(C)C(=O)OC(C)(C)C [Example 115, tert-butyl N-[2-[[5-[4-(4-cyanophenyl)piperidine-1-carbonyl]-2-methyl-phenyl]carbamoylamino]ethyl]-N-methyl-carbamate]",92.9%
11,"CNCCNC(=O)Nc1cc(C(=O)N2CCC(c3ccc(C#N)cc3)CC2)ccc1C [Example 116, 1-[5-[4-(4-cyanophenyl)piperidine-1-carbonyl]-2-methyl-phenyl]-3-(2-methylaminoethyl)urea]",86.2%
12,"Cc1ccc(C(=O)N2CCC(c3ccc(C#N)cc3)CC2)cc1NC(=O)NCCNC(=O)c1cccs1 [Example 117, N-[2-[[5-[4-(4-cyanophenyl)piperidine-1-carbonyl]-2-methyl-phenyl]carbamoylamino]ethyl]thiophene-2-carboxamide]",84.5%
13,"Cc1ccc(C(=O)N2CCC(c3ccc(C#N)cc3)CC2)cc1NC(=O)NCCNC(=O)c1cccn1C [Example 118, N-[2-[[5-[4-(4-cyanophenyl)piperidine-1-carbonyl]-2-methyl-phenyl]carbamoylamino]ethyl]-1-methyl-pyrrole-2-carboxamide]",96.2%
14,"Cc1ccc(C(=O)N2CCC(c3ccc(C#N)cc3)CC2)cc1NC(=O)NCCNC(=O)c1cnoc1C [Example 119, N-[2-[[5-[4-(4-cyanophenyl)piperidine-1-carbonyl]-2-methyl-phenyl]carbamoylamino]ethyl]-5-methyl-1,2-oxazole-4-carboxamide]",89.2%
15,"CC(=O)N(C)CCNC(=O)Nc1cc(C(=O)N2CCC(c3ccc(C#N)cc3)CC2)ccc1C [Example 120, N-[2-[[5-[4-(4-cyanophenyl)piperidine-1-carbonyl]-2-methyl-phenyl]carbamoylamino]ethyl]-N-methyl-acetamide]",68.3%
16,"Cc1ccc(C(=O)N2CCC(c3ccc(C#N)cc3)CC2)cc1NC(=O)NCCN(C)S(C)(=O)=O [Example 121, 1-[5-[4-(4-cyanophenyl)piperidine-1-carbonyl]-2-methyl-phenyl]-3-[2-(methyl-methylsulfonyl-amino)ethyl]urea]",86%
